Data on two molecules can be found in ChEMBL document CHEMBL1240295, “Specificity and mechanism of action of some commonly used protein kinase inhibitors” (Biochem J, 2000).

Test [1] concerns the target [Pyruvate dehydrogenase (acetyl-transferring)] kinase isozyme 1, mitochondrial (Homo sapiens) (UniProt Q15118). Kind of test: Inhibition of His-tagged human PDK1 expressed in Sf21 cells at 50 uM. To be noted: values are per cent of control.
The target of test [2] is Rho-associated protein kinase 2 (Rattus norvegicus) (UniProt Q62868). Nature of the test: Inhibition of rat ROCK2 expressed in Sf9 cells at 50 uM. To be noted: values are per cent of control.
Rho-associated protein kinase 2 (Rattus norvegicus), sequence (Q62868 whole entry, looked up): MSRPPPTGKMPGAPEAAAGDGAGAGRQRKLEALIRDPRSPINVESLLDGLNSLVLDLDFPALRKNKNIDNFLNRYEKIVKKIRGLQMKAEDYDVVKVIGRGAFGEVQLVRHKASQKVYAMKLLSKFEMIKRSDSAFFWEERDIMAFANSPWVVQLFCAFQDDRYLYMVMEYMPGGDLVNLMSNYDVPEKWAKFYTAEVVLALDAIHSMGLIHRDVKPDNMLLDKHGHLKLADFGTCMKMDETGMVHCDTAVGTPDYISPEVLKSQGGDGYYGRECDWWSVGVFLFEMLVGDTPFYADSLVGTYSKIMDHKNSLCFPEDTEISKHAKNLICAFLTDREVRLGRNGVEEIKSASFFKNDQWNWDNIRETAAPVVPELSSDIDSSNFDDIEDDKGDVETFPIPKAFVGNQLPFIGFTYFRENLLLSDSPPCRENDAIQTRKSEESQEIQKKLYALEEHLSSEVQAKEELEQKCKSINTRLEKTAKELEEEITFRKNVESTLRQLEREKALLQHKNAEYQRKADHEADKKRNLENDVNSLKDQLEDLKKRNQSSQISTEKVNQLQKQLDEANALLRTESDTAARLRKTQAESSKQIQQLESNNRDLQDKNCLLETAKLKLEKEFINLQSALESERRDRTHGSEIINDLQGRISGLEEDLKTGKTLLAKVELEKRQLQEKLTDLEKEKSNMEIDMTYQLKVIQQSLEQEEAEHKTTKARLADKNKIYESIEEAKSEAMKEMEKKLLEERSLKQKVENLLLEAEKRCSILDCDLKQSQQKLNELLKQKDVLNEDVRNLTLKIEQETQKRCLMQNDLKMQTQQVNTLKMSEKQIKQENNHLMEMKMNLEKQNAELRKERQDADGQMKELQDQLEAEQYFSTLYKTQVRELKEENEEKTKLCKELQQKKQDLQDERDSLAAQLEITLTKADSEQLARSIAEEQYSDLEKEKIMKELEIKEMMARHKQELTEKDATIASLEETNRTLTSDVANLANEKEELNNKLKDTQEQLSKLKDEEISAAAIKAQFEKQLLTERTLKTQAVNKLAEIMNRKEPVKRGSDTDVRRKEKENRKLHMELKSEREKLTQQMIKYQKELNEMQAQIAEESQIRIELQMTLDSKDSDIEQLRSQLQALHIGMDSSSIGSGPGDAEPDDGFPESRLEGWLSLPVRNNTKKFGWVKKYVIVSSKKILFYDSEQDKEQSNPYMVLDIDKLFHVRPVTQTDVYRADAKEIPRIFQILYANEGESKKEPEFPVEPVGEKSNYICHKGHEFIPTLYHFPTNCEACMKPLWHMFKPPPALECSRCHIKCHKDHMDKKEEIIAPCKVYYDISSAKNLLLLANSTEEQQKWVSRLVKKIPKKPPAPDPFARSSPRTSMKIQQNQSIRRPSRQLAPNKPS
For the next test, the target named is Casein kinase II (Homo sapiens, UniProt P19784+P67870+P68400). Nature of the test: Inhibition of His-tagged human CK2 expressed in Sf9 cells.
Test [3] has as its target Phosphatidylinositol 4,5-bisphosphate 3-kinase catalytic subunit alpha isoform (Bos taurus) (UniProt P32871). To be noted: Sf9, 50 uM.
Description: Inhibition of His-tagged bovine PI3K expressed in Sf9 cells at 50 uM
Test [4] is filed under the species Rattus norvegicus. Nature of the test: Inhibition of rat liver AMPK at 50 uM; values are per cent of control.
Test [5] is filed under the species Bos taurus. Nature of the test: Inhibition of bovine heart PKA at 50 uM; values are per cent of control.
Test [6] is filed under the species Oryctolagus cuniculus. Kind of test: Inhibition of PHK from rabbit skeletal muscle at 50 uM; values are per cent of control. The note with it: Muscle tissue.
Test [7] is filed under the species Oryctolagus cuniculus. Kind of test: Inhibition of MAPKAPK1b from rabbit skeletal muscle at 50 uM; values are per cent of control. To be noted: Muscle tissue.
Test [8] concerns the target RAC-alpha serine/threonine-protein kinase (Homo sapiens) (UniProt P31749). Kind of test: Inhibition of human PKBalpha expressed in SF9 cells at 50 uM; values are per cent of control.
For test [9], the species on record is Oryctolagus cuniculus. Kind of test: Inhibition of rabbit MKK1 expressed in Escherichia coli at 50 uM; values are per cent of control.
Test [10] concerns the target T1, Serine/threonine-protein kinase Sgk1 (Homo sapiens) (UniProt O00141).
T1 sequence (whole entry): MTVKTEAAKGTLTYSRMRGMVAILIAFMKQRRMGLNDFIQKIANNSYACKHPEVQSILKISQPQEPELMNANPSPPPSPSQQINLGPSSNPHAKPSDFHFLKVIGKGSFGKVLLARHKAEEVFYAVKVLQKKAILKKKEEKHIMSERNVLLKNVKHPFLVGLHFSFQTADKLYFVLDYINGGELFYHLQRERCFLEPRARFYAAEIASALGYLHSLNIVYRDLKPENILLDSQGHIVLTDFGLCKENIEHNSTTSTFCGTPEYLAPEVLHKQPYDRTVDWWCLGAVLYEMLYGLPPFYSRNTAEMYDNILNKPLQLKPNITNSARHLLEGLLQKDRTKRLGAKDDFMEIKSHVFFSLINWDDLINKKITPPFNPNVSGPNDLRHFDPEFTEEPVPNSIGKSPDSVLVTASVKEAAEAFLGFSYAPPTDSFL
Nature of the test: Inhibition of His-tagged human SGK expressed in Sf9 cells at 50 uM; values are per cent of control.

The target of test [11] is T2, Casein kinase II (Homo sapiens) (UniProt P67870+P68400+P19784). Nature of the test: Inhibition of His-tagged human CK2 expressed in Sf9 cells at 50 uM; values are per cent of control.
The target of test [12] is T3, Ribosomal protein S6 kinase alpha-5 (Homo sapiens, UniProt O75582). Nature of the test: Inhibition of His-tagged human MSK1 expressed in Sf9 cells at 50 uM; values are per cent of control.
T3 sequence (O75582 whole entry, looked up): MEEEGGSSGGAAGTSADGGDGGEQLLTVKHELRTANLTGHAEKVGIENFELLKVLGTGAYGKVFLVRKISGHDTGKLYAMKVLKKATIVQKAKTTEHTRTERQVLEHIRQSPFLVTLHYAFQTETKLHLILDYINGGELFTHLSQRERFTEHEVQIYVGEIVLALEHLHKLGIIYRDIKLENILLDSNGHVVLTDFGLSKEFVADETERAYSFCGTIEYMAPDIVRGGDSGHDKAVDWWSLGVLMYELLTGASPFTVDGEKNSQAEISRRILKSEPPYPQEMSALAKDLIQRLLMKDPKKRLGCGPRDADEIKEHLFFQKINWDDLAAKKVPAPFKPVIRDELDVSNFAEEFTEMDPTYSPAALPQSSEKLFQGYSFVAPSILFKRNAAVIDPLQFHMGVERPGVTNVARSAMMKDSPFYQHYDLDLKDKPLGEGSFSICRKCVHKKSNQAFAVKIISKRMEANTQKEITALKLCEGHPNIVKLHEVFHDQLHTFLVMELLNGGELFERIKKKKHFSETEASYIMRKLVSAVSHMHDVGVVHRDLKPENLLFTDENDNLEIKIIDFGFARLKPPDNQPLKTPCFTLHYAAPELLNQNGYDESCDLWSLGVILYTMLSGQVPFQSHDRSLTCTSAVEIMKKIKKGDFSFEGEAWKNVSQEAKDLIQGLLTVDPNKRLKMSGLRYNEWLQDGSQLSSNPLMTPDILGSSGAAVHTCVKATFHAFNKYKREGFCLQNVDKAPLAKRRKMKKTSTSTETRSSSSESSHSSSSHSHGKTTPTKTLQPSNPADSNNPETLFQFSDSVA
The target of test [13] is T4, MAP kinase-activated protein kinase 5 (Homo sapiens) (UniProt Q8IW41).
T4 sequence (whole entry): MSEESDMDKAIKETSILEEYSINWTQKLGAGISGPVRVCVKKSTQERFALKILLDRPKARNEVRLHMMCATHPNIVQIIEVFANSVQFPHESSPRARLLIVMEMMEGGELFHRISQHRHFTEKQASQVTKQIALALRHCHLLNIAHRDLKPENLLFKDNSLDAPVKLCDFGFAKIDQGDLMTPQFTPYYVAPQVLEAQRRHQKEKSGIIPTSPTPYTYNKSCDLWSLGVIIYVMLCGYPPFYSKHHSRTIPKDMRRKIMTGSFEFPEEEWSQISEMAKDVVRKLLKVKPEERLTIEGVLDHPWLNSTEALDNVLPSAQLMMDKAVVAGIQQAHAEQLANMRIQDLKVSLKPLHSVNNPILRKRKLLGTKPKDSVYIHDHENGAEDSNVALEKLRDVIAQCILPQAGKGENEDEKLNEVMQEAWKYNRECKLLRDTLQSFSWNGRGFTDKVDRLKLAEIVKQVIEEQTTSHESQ
Kind of test: Inhibition of His-tagged human PRAK expressed in Sf9 cells at 50 uM; values are per cent of control.

Test [14] addresses T5, Glycogen synthase kinase-3 beta (Homo sapiens, UniProt P49841). Kind of test: Inhibition of His-tagged human GSK3b expressed in Sf21 cells at 50 uM; values are per cent of control.
In test [15] the target is T6, Ribosomal protein S6 kinase beta-1 (Homo sapiens, UniProt P23443). Nature of the test: Inhibition of His-tagged human S6K1 expressed in Escherichia coli at 50 uM; values are per cent of control.
T6 sequence (P23443 whole entry, looked up): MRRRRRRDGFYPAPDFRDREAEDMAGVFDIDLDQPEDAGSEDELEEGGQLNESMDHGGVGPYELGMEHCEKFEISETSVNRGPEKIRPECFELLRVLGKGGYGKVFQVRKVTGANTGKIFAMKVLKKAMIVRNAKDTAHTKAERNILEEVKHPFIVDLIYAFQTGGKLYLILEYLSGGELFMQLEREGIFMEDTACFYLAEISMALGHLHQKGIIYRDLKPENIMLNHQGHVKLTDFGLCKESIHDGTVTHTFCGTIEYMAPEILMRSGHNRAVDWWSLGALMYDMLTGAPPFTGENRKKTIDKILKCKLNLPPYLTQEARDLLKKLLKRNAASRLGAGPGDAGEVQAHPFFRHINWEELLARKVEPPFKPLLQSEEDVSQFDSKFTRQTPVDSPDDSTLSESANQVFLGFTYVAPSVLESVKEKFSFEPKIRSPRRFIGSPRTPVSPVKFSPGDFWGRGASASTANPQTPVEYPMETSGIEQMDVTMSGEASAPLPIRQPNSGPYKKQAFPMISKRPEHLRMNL
For test [16], the target named is T7, Serine/threonine-protein kinase Chk1 (Homo sapiens) (UniProt O14757).
T7 sequence (whole entry): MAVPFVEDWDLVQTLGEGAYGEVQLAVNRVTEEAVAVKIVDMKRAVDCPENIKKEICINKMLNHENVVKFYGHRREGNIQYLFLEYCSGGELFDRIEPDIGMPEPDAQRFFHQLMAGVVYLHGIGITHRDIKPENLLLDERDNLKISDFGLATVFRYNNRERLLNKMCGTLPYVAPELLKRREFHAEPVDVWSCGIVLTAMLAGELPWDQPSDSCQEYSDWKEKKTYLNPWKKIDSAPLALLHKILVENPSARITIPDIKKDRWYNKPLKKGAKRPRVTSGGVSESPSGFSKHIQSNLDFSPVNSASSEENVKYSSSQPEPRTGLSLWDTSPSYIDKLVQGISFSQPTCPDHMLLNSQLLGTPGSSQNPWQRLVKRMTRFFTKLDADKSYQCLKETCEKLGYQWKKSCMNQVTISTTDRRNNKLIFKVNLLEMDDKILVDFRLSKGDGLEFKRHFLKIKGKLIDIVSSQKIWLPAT
Kind of test: Inhibition of His-tagged human CHK1 expressed in Escherichia coli at 50 uM; values are per cent of control.

The target of test [17] is T8, MAP kinase-activated protein kinase 2 (Homo sapiens, UniProt P49137). Kind of test: Inhibition of His-tagged human MAPKAPK2 expressed in Escherichia coli at 50 uM; values are per cent of control.
T8 sequence (P49137 whole entry, looked up): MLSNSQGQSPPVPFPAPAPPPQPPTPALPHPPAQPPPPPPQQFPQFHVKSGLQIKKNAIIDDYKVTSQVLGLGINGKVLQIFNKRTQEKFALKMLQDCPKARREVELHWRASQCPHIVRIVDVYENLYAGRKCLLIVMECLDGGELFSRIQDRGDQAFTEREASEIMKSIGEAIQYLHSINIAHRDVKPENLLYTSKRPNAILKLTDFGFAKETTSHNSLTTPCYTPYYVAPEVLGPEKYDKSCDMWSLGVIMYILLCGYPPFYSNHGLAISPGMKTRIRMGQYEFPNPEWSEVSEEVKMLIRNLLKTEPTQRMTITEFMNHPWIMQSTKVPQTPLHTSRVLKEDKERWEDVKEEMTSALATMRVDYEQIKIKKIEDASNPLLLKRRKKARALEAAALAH
Test [18] deals with Protein kinase C alpha type (Homo sapiens, UniProt P17252). Kind of test: Inhibition of His-tagged human PKCalpha expressed in Escherichia coli at 50 uM; values are per cent of control.
The target in test [19] is Mitogen-activated protein kinase 1 (Homo sapiens) (UniProt P28482). Nature of the test: Inhibition of His-tagged human MAPK2/ERK2 expressed in Escherichia coli at 50 uM; values are per cent of control.
Test [20] deals with Mitogen-activated protein kinase 11 (Homo sapiens) (UniProt Q15759). Kind of test: Inhibition of His-tagged human SAPK2b/p38b2 expressed in Escherichia coli at 50 uM; values are per cent of control.
Mitogen-activated protein kinase 11 (Homo sapiens), sequence (Q15759 whole entry): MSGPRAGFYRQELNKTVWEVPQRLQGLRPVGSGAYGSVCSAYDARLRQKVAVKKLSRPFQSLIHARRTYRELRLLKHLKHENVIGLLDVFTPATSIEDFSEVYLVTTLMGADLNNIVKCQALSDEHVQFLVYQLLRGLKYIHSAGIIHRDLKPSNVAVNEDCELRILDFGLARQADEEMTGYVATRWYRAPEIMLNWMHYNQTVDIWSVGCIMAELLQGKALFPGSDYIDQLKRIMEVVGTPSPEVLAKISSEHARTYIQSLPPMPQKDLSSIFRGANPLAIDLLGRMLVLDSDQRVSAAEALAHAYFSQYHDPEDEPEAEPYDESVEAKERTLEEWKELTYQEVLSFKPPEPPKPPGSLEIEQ
Test [21] has as its target Mitogen-activated protein kinase 8 (Homo sapiens) (UniProt P45983). Nature of the test: Inhibition of His-tagged human JNK1a1/SAPK1c expressed in Escherichia coli at 50 uM; values are per cent of control.
The target of test [22] is T9, Mitogen-activated protein kinase 13 (Homo sapiens) (UniProt O15264).
T9 sequence (whole entry): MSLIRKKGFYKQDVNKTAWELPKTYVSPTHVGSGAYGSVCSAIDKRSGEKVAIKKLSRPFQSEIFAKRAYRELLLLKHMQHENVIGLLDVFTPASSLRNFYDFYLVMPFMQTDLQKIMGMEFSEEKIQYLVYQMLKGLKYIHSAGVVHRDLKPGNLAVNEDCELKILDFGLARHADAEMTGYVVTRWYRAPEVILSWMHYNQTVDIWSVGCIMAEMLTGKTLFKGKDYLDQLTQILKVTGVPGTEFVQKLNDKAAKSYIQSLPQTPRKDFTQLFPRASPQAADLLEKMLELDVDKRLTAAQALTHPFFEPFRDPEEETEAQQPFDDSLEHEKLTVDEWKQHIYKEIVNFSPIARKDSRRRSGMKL
Kind of test: Inhibition of His-tagged human SAPK4/p38delta expressed in Escherichia coli at 50 uM; values are per cent of control.

For another test, the species on record is Homo sapiens. Kind of test: Inhibition of His-tagged human CAMK2 expressed in Escherichia coli at 10 uM.
For test [23], the target named is Myosin light chain kinase, smooth muscle (Gallus gallus) (UniProt P11799). Nature of the test: Inhibition of chicken SmMLCK expressed in Escherichia coli at 10 uM. To be noted: Ovis aries.
Test [24] in a line: Inhibition of His-tagged human CAMK2 expressed in Escherichia coli.
For test [25], the species on record is Oryctolagus cuniculus. To be noted: at 10 µM.
Description: Inhibition of rabbit MKK1 expressed in Escherichia coli at 10 uM
Test [26] has as its target Mitogen-activated protein kinase 1 (Homo sapiens) (UniProt P28482). The note with it: at 10 µM.
Description: Inhibition of Gst-tagged human MAPK2/ERK2 expressed in Escherichia coli at 10 uM
Test [27] concerns the target Mitogen-activated protein kinase 8 (Homo sapiens) (UniProt P45983). The note with it: at 10 µM.
Description: Inhibition of Gst-tagged human JNK1a1 expressed in Escherichia coli at 10 uM
The target in test [28] is Mitogen-activated protein kinase 11 (Homo sapiens) (UniProt Q15759). To be noted: at 10 µM.
Description: Inhibition of Gst-tagged human SAPK2b/p38--beta-2 expressed in Escherichia coli at 10 uM
The target of test [29] is T9, Mitogen-activated protein kinase 13 (Homo sapiens). To be noted: at 10 µM.
Description: Inhibition of Gst-tagged human SAPK4/p38delta expressed in Escherichia coli at 10 uM
The species named for test [30] is Oryctolagus cuniculus. The note with it: Muscle tissue, at 10 µM.
Description: Inhibition of MAPKAPK1b from rabbit skeletal muscle at 10 uM
In test [31] the target is T8, MAP kinase-activated protein kinase 2. To be noted: at 10 µM.
Description: Inhibition of Gst-tagged human MAPKAPK2 expressed in Escherichia coli at 10 uM
The target in test [32] is T3, Ribosomal protein S6 kinase alpha-5. The note with it: Sf9, at 10 µM.
Description: Inhibition of His-tagged human MSK1 expressed in Sf9 cells at 10 uM
Test [33] concerns the target T4, MAP kinase-activated protein kinase 5 (Homo sapiens). The note with it: Sf9, at 10 µM.
Description: Inhibition of His-tagged human PRAK expressed in Sf9 cells at 10 uM
The species named for test [34] is Bos taurus. To be noted: at 10 µM.
Description: Inhibition of bovine heart PKA at 10 uM
In test [35] the target is 3-phosphoinositide-dependent protein kinase 1 (Homo sapiens) (UniProt O15530). The note with it: Sf21, at 10 µM.
The target in test [36] is RAC-alpha serine/threonine-protein kinase (Homo sapiens) (UniProt P31749). The note with it: Sf9, at 10 µM.
RAC-alpha serine/threonine-protein kinase (Homo sapiens), sequence (P31749 whole entry): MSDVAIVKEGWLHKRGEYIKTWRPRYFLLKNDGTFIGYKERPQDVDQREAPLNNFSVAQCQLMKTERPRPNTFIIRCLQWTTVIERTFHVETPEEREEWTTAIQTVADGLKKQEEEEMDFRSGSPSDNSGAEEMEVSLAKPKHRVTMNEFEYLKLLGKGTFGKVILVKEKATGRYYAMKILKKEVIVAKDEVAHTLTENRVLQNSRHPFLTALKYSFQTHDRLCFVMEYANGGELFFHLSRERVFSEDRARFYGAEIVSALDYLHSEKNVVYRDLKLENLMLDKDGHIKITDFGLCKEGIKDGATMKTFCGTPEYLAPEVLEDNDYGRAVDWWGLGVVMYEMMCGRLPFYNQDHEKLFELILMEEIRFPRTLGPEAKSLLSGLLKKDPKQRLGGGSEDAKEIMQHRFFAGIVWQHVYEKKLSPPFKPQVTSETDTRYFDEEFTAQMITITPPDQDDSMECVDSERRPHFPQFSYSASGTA
Description: Inhibition of human PKBalpha expressed in SF9 cells at 10 uM
For test [37], the target named is T1, Serine/threonine-protein kinase Sgk1 (Homo sapiens). The note with it: Sf9, at 10 µM.
Description: Inhibition of His-tagged human SGK expressed in Sf9 cells at 10 uM
Test [38] concerns the target T6, Ribosomal protein S6 kinase beta-1. To be noted: at 10 µM.
Description: Inhibition of His-tagged human S6K1 expressed in Escherichia coli at 10 uM
Test [39] concerns the target T5, Glycogen synthase kinase-3 beta. The note with it: Sf21, at 10 µM.
Description: Inhibition of His-tagged human GSK3b expressed in Sf21 cells at 10 uM
The target in test [40] is Rho-associated protein kinase 2 (Rattus norvegicus) (UniProt Q62868). The note with it: Sf9, at 10 µM.
Description: Inhibition of rat ROCK2 expressed in Sf9 cells at 10 uM
The species named for test [41] is Rattus norvegicus. To be noted: at 10 µM.
Description: Inhibition of rat liver AMPK at 10 uM
The target of test [42] is T2, Casein kinase II (Homo sapiens). The note with it: Sf9, at 10 µM.
Description: Inhibition of His-tagged human CK2 expressed in Sf9 cells at 10 uM
Test [43] is filed under the species Oryctolagus cuniculus. The note with it: Muscle tissue, at 10 µM. This is another data set of the same source.
Description: Inhibition of PHK from rabbit skeletal muscle at 10 uM
The target in test [44] is Tyrosine-protein kinase Lck (Homo sapiens) (UniProt P06239). The note with it: Sf9, at 10 µM.
Description: Inhibition of His-tagged human LCK expressed in Sf9 cells at 10 uM
In test [45] the target is T7, Serine/threonine-protein kinase Chk1 (Homo sapiens). The note with it: at 10 µM.
Description: Inhibition of His-tagged human CHK1 expressed in Escherichia coli at 10 uM

Mitogen-activated protein kinase 8 (Homo sapiens), sequence (P45983 whole entry): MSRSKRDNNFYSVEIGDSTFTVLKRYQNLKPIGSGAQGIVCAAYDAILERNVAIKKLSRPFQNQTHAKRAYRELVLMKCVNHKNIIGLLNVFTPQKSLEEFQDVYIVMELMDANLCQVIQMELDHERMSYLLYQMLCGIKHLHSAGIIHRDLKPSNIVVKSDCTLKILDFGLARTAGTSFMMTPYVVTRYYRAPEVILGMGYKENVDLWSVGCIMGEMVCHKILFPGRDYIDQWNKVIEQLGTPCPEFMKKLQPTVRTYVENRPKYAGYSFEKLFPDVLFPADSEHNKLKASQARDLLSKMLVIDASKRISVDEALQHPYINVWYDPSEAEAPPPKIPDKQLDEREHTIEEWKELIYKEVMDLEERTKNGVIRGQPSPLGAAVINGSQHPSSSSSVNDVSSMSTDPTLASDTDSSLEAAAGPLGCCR
T5 sequence (P49841 whole entry, looked up): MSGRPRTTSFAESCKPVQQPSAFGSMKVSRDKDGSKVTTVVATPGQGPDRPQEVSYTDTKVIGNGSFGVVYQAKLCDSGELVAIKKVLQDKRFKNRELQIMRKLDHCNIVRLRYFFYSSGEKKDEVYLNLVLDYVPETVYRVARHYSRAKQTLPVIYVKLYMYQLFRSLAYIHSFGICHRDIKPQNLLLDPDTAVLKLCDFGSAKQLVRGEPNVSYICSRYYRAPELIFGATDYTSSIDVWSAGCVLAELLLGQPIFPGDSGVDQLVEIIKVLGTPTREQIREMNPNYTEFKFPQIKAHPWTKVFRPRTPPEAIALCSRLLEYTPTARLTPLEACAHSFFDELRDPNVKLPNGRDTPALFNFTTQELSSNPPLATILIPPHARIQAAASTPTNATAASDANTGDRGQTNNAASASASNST

By IC50 is commonly meant the midpoint of a concentration-inhibition curve. Read a high IC50 as weaker potency. `O=c1cc(N2CCOCC2)oc2c(-c3ccccc3)cccc12` [LY-294002]: the residual activity in [1] is 76%; in [2], 104%; in [3] it was 13%; in the test listed under Rattus norvegicus [4], 103%; in the test listed under Bos taurus [5], 91%; in test [8], 60%. In addition, the residual activity in the test filed under Oryctolagus cuniculus [9] was found to be 101%; in test [10], 72%; in [11], 18%; in test [12], 83%; in test [13], 68%; in test [14] it was 53%. The residual activity stood at 81% in [15]; 90% in test [16]; 74% in test [17]; 91% in test [18]; 114% in test [19]; 98% in test [20]. The values for the residual activity in test [21] and in [22] were 108% and 94%, respectively. At Casein kinase II, this molecule registered a half-inhibitory concentration (IC50) of 6.9 µM. In addition, the level, % of control was 44% in the test listed under Oryctolagus cuniculus [6] and 70% in the test listed under Oryctolagus cuniculus [7].

By inhibition is commonly meant the share of the control response that was lost under treatment. With `CN([C@@H](Cc1ccc(OS(=O)(=O)c2cccc3cnccc23)cc1)C(=O)N1CCN(c2ccccc2)CC1)S(=O)(=O)c1cccc2cnccc12`, the inhibition was 0% in the test listed under Homo sapiens and 96% in test [23]. The IC50 in test [24] was 0.5 µM. In addition, the residual activity in the test listed under Oryctolagus cuniculus [25] is 101%; in [26] it was 92%; in test [27], 104%; in test [28], 98%; in test [29] it was 110%; in test [31] it was 59%. Also, the residual activity in test [32] came out at 81%; in test [33], 36%; in the test listed under Bos taurus [34] it was 94%; in [35], 70%; in test [36], 67%; in test [37] it was 78%. Moreover, the residual activity in test [38] was determined as 93%; in [39], 38%; in [40], 88%; in the test listed under Rattus norvegicus [41] it was 97%; in test [42], 103%; in test [44], 92%. The residual activity in test [45] was 104%. The results for the level, % of control in the test listed under Oryctolagus cuniculus [30] and in the test filed under Oryctolagus cuniculus [43] were 89% and 106%, respectively.
